Experimental data taken from ChEMBL document CHEMBL3046794, “Synthesis and blood glucose lowering activity of some novel benzenesulfonylurea derivatives substituted with 6-aryl-4,5-dihyropyridazin-3(2H)-ones” (2012).
The source made the active and inactive calls. The rule behind the calls is not given here.

How the values were obtained:
Rattus norvegicus [1] = experiment: Antidiabetic activity in overnight fastedRattus norvegicus albino (rat) assessed as reduction in blood glucose level at 20 mg/kg, po measured after 60 min by oral glucose tolerance test relative to control (reference value: 78.0 +/- 1.167 mg/dl); type: functional
Rattus norvegicus [2] = experiment: Antidiabetic activity in Rattus norvegicus albino (rat) assessed as inhibition in rise of blood glucose level at 20 mg/kg, po administered 30 min prior to glucose challenge measured post 60 min of challenge by oral glucose tolerance test relative to control; type: functional

| Structure (SMILES) | Activity (Rattus norvegicus [1]) | inhibition in vivo at 20 mg/kg (Rattus norvegicus [2]) | inhibition (Rattus norvegicus [2]) |
| --- | --- | --- | --- |
| CCc1ccc(C2=NN(c3ccc(S(=O)(=O)NC(=O)NCc4ccccc4)cc3)C(=O)CC2)cc1 | 62 mg/dL | 86.9% | – |
| O=C(NCc1ccccc1)NS(=O)(=O)c1ccc(N2N=C(c3ccc(Oc4ccccc4)cc3)CCC2=O)cc1 | – | – | inactive |
| Cc1ccc(S(=O)(=O)NC(=O)NN2CC3CCCC3C2)cc1 (stereo not drawn) [GLICLAZIDE] | 58.2 mg/dL | 61.4% | – |
| Cc1ccc(C2=NN(c3ccc(S(=O)(=O)NC(=O)NCc4ccccc4)cc3)C(=O)CC2)cc1 | – | – | inactive |
| Cc1ccc(C2=NN(c3ccc(S(=O)(=O)NC(=O)NCc4ccccc4)cc3)C(=O)CC2)c(C)c1 | – | 6.5% | – |
| COc1ccc(C2=NN(c3ccc(S(=O)(=O)NC(=O)NCc4ccccc4)cc3)C(=O)CC2)cc1 | – | 41.4% | – |
